{"source": "paper PMC4573583", "about": "(ACS chemical biology, 2015)", "key": {"[1]": {"tested_on": "BamL", "details": "cited from earlier work"}, "[2]": {"experiment": "aqueous solubility", "format": "physicochemical", "details": "in words"}, "[3]": {"tested_on": "Bacillus subtilis 168", "format": "cell-based"}, "[4]": {"tested_on": "Escherichia coli DH5a", "format": "cell-based"}, "[5]": {"tested_on": "B. anthracis Sterne", "format": "cell-based, Bacillus anthracis", "details": "24 μM, 12 h treatment, duplicate, *P<0.01 vs DMSO-treated"}, "[6]": {"tested_on": "MRSA (S. aureus NRS384)", "experiment": "cell density after 12 h treatment, MRSA", "format": "cell-based, Staphylococcus aureus", "details": "24 μM, duplicate, #P<0.01 vs DMSO-treated MRSA"}, "[7]": {"tested_on": "B. anthracis Sterne", "format": "cell-based, Bacillus anthracis", "details": "4 μM, 30 min, mid-exponential phase cells, 22 °C"}, "[8]": {"tested_on": "other representative members of the genus Bacillus", "format": "cell-based"}, "[9]": {"tested_on": "Bacillus anthracis Sterne", "details": "microbroth dilution method, ref [6], [10]; cited from earlier work"}, "[10]": {"tested_on": "other members of the genus Bacillus", "details": "cited from earlier work"}}, "note": "Entries after “also recorded” stand apart in the source; their conditions may differ.", "data": [{"compound": "N=C(N)NCCC[C@H](N)C(=O)O", "note": "[Arg]", "values": [{"measurement": "acceptance as substrate", "setting": "[1]", "result": "not accepted as a substrate"}]}, {"compound": "RCTCTT [Arg-Az5]", "values": [{"measurement": "aqueous solubility", "setting": "[2]", "result": "moderate solubility"}]}, {"compound": "plantazolicin [PZN]", "values": [{"measurement": "minimum inhibitory concentration (MIC)", "setting": "[3]", "result": ">48", "unit": "µM"}, {"measurement": "minimum inhibitory concentration (MIC)", "setting": "[4]", "result": ">48", "unit": "µM"}, {"measurement": "bactericidal effect (cell density, 595 nm)", "setting": "[5]", "result": "bactericidal"}, {"measurement": "antibiotic activity (cell density, 595 nm)", "setting": "[6]", "result": "not PZN displays antibiotic activity against MRSA"}, {"measurement": "cell lysis", "setting": "[7]", "result": "induces major cell lysis above the MIC; also recorded: shows cell lysis"}, {"measurement": "activity against other Bacillus (microbroth dilution)", "setting": "[8]", "result": "> 48", "unit": "µM"}, {"measurement": "susceptibility to purified PZN", "setting": "[9]", "result": "the only organism susceptible to the action of purified PZN to date has been Bacillus anthracis"}, {"measurement": "growth inhibitory activity", "setting": "[10]", "result": "weak growth inhibitory activity"}]}, {"compound": "NC(=O)[C@@H](N)CCCN=C(N)N", "note": "[Arg amide]", "values": [{"measurement": "acceptance as substrate", "setting": "[1]", "result": "poorer substrate that is turned over by BamL but only under single-turnover conditions; also recorded: only so under near-single turnover conditions"}]}]}
